As usually defined, the IC50 is the concentration needed to halve the response being measured.

Here are results for ten compounds from patent US4450166A, “N-(4,5-Dihydro-thiazol-2-yl)-3-quinoline-carboxamides having anxiolytic activity” (Roussel Uclaf, priority 1981, dated 1984).

The conditions of series [1]: derivative of French Pat. No. 2,340,735; cited from earlier work.
For series [2] the following is noted: derivative of French Pat. No. 2,340,735; cited from earlier work. The source holds these as a separate data set.
The target in series [3] is receptors for benzodiazepines. Description: Affinity for receptors for benzodiazepines (inhibition of specific bonding of ^3 H diazepam). Type of series: binding. The following applies: ^3 H diazepam 10^-9 M, rat cortex, pH of 7.4. As to the method: The test was inspired by Mohler et al. [Science, No. 198 (1977), p. 849-851] and one part of the cortex removed from the brains of males rats weighing an average of […] per 20 parts by volume of 0.32 M of sucrose solution was homogenized. After centrifugation at 1000 g of the homogenized mixture at 0° C. for 10 minutes, the surnagent was centrifuged at 30,000 g at 4° C. for 20 minutes and the culot was suspended in 20 volumes of buffered 50 mM. Tris HCl with a pH of 7.4. The suspension was centrifuged at 30,000 g for 20 minutes at 4° C. and the new culot was suspended in 50 ml of buffered Krebs Tris HCl with a pH of 7.4. Following incubation at 0° C. for 30 minutes, 2 ml of the suspension in the presence of ^3 H diazepam at a concentration of 10^-9 M alone and with increasing concentrations of the test product to determine non-specific fixation with non-radioactive diazepam at a concentration of 10^-6 M.
The incubated suspension were filtered through a Whatman GF/C filter and the filters were washed twice at 0° C. with 5 ml of buffered krebs. Tris HCl with a pH of 7.4. The radioactivity of the filter was measured by liquid scintillation and the activity of the product was expressed in I.C.50 or the concentration which inhibits by 50% the specific bonding of ^3 H diazepam determined graphically.

The nature of the next series: Acute toxicity. It counts as in vivo. The note with it: oral, mice.
Series [4] can be described thus: Anxiolytic activity (electric shock test, Apelab apparatus, Boissier et al). The following applies: oral; for ED (maximum): Mus musculus, 0.5 h, 30 minutes before the test, groups of 10 mice, shocks over one minute, read-out: oral dose at which the number of delivered shocks increased to the maximum; for anxiolytic activity (in words): mice. Type of series: in vivo, mice. As to the method: The Apelab apparatus and protocol used by Boissier et al [European J. Pharmacol., Vol. 4 (1968), p. 145] were used to determine the anxiolytic activity and 4 plates were connected to a stimulator (U. Sachs, Roucaire) which delivered electric shocks of 120 volts for 0.5 seconds. The test was effected on groups of 10 mice who had orally received the test compound 30 minutes before the test. Each animal was individually placed on the apparatus and after 15 seconds of free exploration, it was subjected to an electric shock each time as it passed from plate to another, a minimum of 3 seconds being observed between 2 shocks. The number of delivered shocks was determined over one minute and the obtained results were compared to those observed on control animals by the Dunnett test.

Series [5] has as its system plasmatic corticosterone level. The experiment in a line: Action against stress caused by noise by plasmatic corticosterone level. It counts as in vivo. The following applies: Rattus norvegicus; oral; groups of 5 rats fasted 24 hours; noise stress one hour later; read-out: DE50 (oral dose which reduced by 50% the level of corticosterone). As to the method:
The test was effected on groups of 5 rats fasted for 24 hours receiving orally the test compound between 8 and 9 in the morning. One hour later, stress was applied to the animals by placing them in a cage with a noisily operated radio adjacent thereto. 30 minutes later, they received an intraperitonal prick and 10 minutes later, the animals were anesthesized with halothane. 3 ml blood samples were taken after decapitation and the seric levels of corticosterone were determined by a radio-immunological method. Counts were taken of the importance in the male rat of seric concentrations of corticosterone to determine directly without previous extraction of the hormone with 0.1 ml of the sample diluted to 1 to 100. To the test sample were added in hemolysis tubes (12×65 mm) 0.1 ml of an aqueous solution of ^3 H-- corticosterone (5000 spm) and 0.5 ml of buffered phosphate solution (0.02 M; pH of 6.9) containing 0.02% of gelatine and 0.02% of sodium nitride containing a suspension of anticorticosterone antiserum (dilution 1/300,000), sheep antiserum anti γ-globuline of rabbit (dilution of 1/50) and normal serum of rabbit treated with Dextran carbon (dilution 1/500).
The volume was adjusted to 1 ml and the mixture was incubated overnight at 4° C. The mixture was centrifuged at 3000 t/mn for 20 minutes and the surnageant was discarded. The radioactivity contained in the precipitate was measured by a counter after addition of 2 ml of scintillation liquid containing 5% of Soluene 350. The concentration of corticosterone was determined with a standard curve (0-4000 pg) established under the treatment conditions of the samples. The individual seric level of corticosterone expressed in μg/100 ml was determined as the average of 3 tests and the results were compared by the Student test to those obtained in control animals not subjected to stress. The results expressed as DE50 on the oral dose which reduced by 50% the level of corticosterone in the treated animals is reported in Table III.

Counter-ions that a name gives are not always drawn. Like-named read-outs stand apart in the source and are kept apart here. Some results are limits rather than exact numbers.

With `O=C(NC1=NCCS1)c1cnc2c(C(F)(F)F)cccc2c1O`, in series [1], the “anxiolytic activity (in words)” value is given as “devoid of anxiolytic activity”. Further, the “analgesic activity (in words)” value in series [2] is reported as “has analgesic activity”.

In the case of `Cl.O=C(NC1=NCCS1)c1cnc2ccccc2c1O` [Example 1, N-(4,5-dihydro-thiazol-2-yl)-4-hydroxy-3-quinoline-carboxamide hydrochloride], the midpoint of inhibition in series [3], the IC50, lay at 0.5 nM. The “DL0 (maximum dose which did not cause any mortality after 8 days)” value in the series “Acute toxicity” is over 400 mg/kg. Besides, in series [4], the ED (maximum) turned out to be 10 mg/kg and the “anxiolytic activity (in words)” value was “good anxoilytic activity”. In series [5], the ED50 was determined as 10 mg/kg.

In turn, `CCc1ccc2ncc(C(=O)NC3=NCCS3)c(O)c2c1.Cl` [Example 2, N-(4,5-dihydro-thiazol-2-yl)-6-ethyl-4-hydroxy-3-quinoline-carboxamide hydrochloride] had an IC50 in series [3] of 0.3 nM. For the same compound, the “DL0 (maximum dose which did not cause any mortality after 8 days)” value in “Acute toxicity” is recorded as over 400 mg/kg. In addition, in series [4], the ED (maximum) is 20 mg/kg and the “anxiolytic activity (in words)” value is “good anxoilytic activity”. Further, the ED50 in series [5] is 15 mg/kg.

Regarding `Cc1ccc2ncc(C(=O)NC3=NCCS3)c(O)c2c1` [Example 3, N-(4,5-dihydro-thiazol-2-yl)-6-methyl-4-hydroxy-3-quinoline-carboxamide hydrochloride], in series [3], the half-maximal inhibitory concentration (IC50) worked out at 1.5 nM.

Consider `CC(C)c1ccc2ncc(C(=O)NC3=NCCS3)c(O)c2c1` [Example 4, N-(4,5-dihydro-thiazol-2-yl)-6-isopropyl-4-hydroxy-3-quinoline-carboxamidehydrochloride], for which the IC50 in series [3] is 2.2 nM. Besides, the “DL0 (maximum dose which did not cause any mortality after 8 days)” value in “Acute toxicity” is on record as over 1000 mg/kg. Besides, in series [4], the ED (maximum) was 20 mg/kg and the “anxiolytic activity (in words)” value was “good anxoilytic activity”. In addition, the ED50 in series [5] is 50 mg/kg.

On to `O=C(NC1=NCCS1)c1cnc2cc(Cl)ccc2c1O` [Example 5, N-(4,5-dihydro-thiazol-2-yl)-7-chloro-4-hydroxy-3-quinoline-carboxamide hydrochloride], for which the IC50 in series [3] came to 0.9 nM. The “DL0 (maximum dose which did not cause any mortality after 8 days)” value in the series “Acute toxicity” is recorded as over 1000 mg/kg.

The compound `O=C(NC1=NCCS1)c1cnc2ccc(Cl)cc2c1O` [Example 6, N-(4,5-dihydro-thiazol-2-yl)-6-chloro-4-hydroxy-3-quinoline-carboxamide hydrochloride] registered an IC50 in series [3] of 1 nM. Further, in the series “Acute toxicity”, the “DL0 (maximum dose which did not cause any mortality after 8 days)” value is reported as over 400 mg/kg. Further, in series [4], the ED (maximum) was determined as 50 mg/kg and the “anxiolytic activity (in words)” value is listed as “good anxoilytic activity”. In series [5], the ED50 is 50 mg/kg.

`O=C(NC1=NCCS1)c1cnc2ccc(F)cc2c1O` [Example 7, N-(4,5-dihydro-thiazol-2-yl)-6-fluoro-4-hydroxy-3-quinoline-carboxamide hydrochloride] yielded a 50% inhibitory concentration (IC50) in series [3] of 1.3 nM.

For the compound `COc1ccc2c(O)c(C(=O)NC3=NCCS3)cnc2c1` [Example 8, N-(4,5-dihydro-thiazol-2-yl)-7-methoxy-4-hydroxy-3-quinoline-carboxamide hydrochloride], the half-maximal inhibitory concentration (IC50) in series [3] is 1.2 nM. In addition, the “DL0 (maximum dose which did not cause any mortality after 8 days)” value in “Acute toxicity” is on record as over 400 mg/kg. Also, in series [4], the ED (maximum) is 20 mg/kg and the “anxiolytic activity (in words)” value is “good anxoilytic activity”.

In turn, `Cc1nc2ccccc2c(O)c1C(=O)NC1=NCCS1` [Example 9, N-(4,5-dihydro-thiazol-2-yl)-2-methyl-4-hydroxy-3-quinoline-carboxamide hydrochloride] returned an IC50 in series [3] of 2.6 nM. Besides, the “DL0 (maximum dose which did not cause any mortality after 8 days)” value in the series “Acute toxicity” is listed as over 1000 mg/kg. Moreover, in series [4], the ED (maximum) is 10 mg/kg and the “anxiolytic activity (in words)” value was “good anxoilytic activity”. Also, in series [5], the ED50 was 10 mg/kg.
